According to US20210340131A1, “PESTICIDALLY ACTIVE ISOXAZOLINE D[…] AMIDE GROUP AND AN AZETIDINE SULFONE GROUP” (SYNGENTA CROP PROTECTION AG, priority 2018, published 2021):

How the values were obtained:
Format in all cases: in vivo
Spodoptera littoralis = Spodoptera littoralis (Egyptian cotton leaf worm), sprayed cotton leaf discs, L1 larvae; conditions: foliar, 72 h, spray on cotton leaf discs, 3 days after infestation, read-out: control (mortality, anti-feeding effect or growth inhibition)
Description: Spodoptera littoralis (Egyptian Cotton Leaf Worm)
Cotton leaf discs were placed onto agar in 24-well microtiter plates and sprayed with aqueous test solutions prepared from 10′000 ppm DMSO stock solutions. After drying the leaf discs were infested with five L1 larvae. The samples were assessed for mortality, anti-feeding effect, and growth inhibition in comparison to untreated samples 3 days after infestation. Control of Spodoptera littoralis by a test sample is given when at least one of the categories mortality, anti-feedant effect, and growth inhibition is higher than the untreated sample.

Plutella xylostella [1] = experiment: Plutella xylostella (diamond back moth), artificial diet, L2 larvae; conditions: 120 h, 5 days after infestation, read-out: effect in at least one of the two categories (mortality or growth inhibition)
Description: (§1) Plutella xylostella (Diamond Back Moth)
(§2) 24-well microtiter plates with artificial diet were treated with aqueous test solutions prepared from 10′000 ppm DMSO stock solutions by pipetting. After drying, the plates were infested with L2 larvae (10 to 15 per well). The samples were assessed for mortality and growth inhibition in comparison to untreated samples 5 days after infestation.
The following compounds gave an effect of at least 80% in at least one of the two categories (mortality or growth inhibition) at an application rate of 200 ppm: A1

Euschistus heros = Euschistus heros (neotropical brown stink bug), sprayed soybean leaves, N2 nymphs; conditions: 120 h, spray on soybean leaves, 5 days after infestation, read-out: effect in at least one of the two categories (mortality or growth inhibition)
Description: Euschistus heros (Neotropical Brown Stink Bug)
Soybean leaves on agar in 24-well microtiter plates were sprayed with aqueous test solutions prepared from 10′000 ppm DMSO stock solutions. After drying the leaves were infested with N2 nymphs. The samples were assessed for mortality and growth inhibition in comparison to untreated samples 5 days after infestation.
The following compounds gave an effect of at least 80% in at least one of the two categories (mortality or growth inhibition) at an application rate of 200 ppm: A1, A2

Diabrotica balteata = Diabrotica balteata (corn root worm), sprayed maize sprouts, L2 larvae; conditions: 96 h, spray on maize sprouts, 4 days after infestation, read-out: effect in at least one of the two categories (mortality or growth inhibition)
Description: Diabrotica balteata (Corn Root Worm)
Maize sprouts placed onto an agar layer in 24-well microtiter plates were treated with aqueous test solutions prepared from 10′000 ppm DMSO stock solutions by spraying. After drying, the plates were infested with L2 larvae (6 to 10 per well). The samples were assessed for mortality and growth inhibition in comparison to untreated samples 4 days after infestation. The following compounds gave an effect of at least 80% in at least one of the two categories (mortality or growth inhibition) at an application rate of 200 ppm: A1

Thrips tabaci = Thrips tabaci (onion thrips) feeding/contact activity; conditions: foliar, 144 h, spray on sunflower leaf discs, mixed ages, 6 days after infestation
Description: Thrips tabaci (Onion Thrips) Feeding/Contact Activity
(§3) Sunflower leaf discs were placed on agar in 24-well microtiter plates and sprayed with aqueous test solutions prepared from 10′000 ppm DMSO stock solutions. After drying the leaf discs were infested with a thrips population of mixed ages. The samples were assessed for mortality 6 days after infestation.

Tetranychus urticae = Tetranychus urticae (two-spotted spider mite) feeding/contact activity; conditions: foliar, 192 h, spray on bean leaf discs, mixed population (mobile stages), 8 days after infestation
Description: Tetranychus urticae (Two-Spotted Spider Mite): Feeding/Contact Activity
as §3, with “Bean” for “Sunflower”, “discs” for “discs were placed”, “were” for “and”, “mite” for “thrips”, “on mixed population (mobile stages) 8” for “6”

Plutella xylostella [2] = experiment: Plutella xylostella (diamond back moth), artificial diet, eggs; conditions: 192 h, 8 days after infestation, read-out: effect in at least one of the two categories (mortality or growth inhibition)
Description: as §1
as §2, with “drying, Plutella eggs were pipetted through a plastic stencil onto a gel blotting paper and” for “drying,”, “plate was closed” for “plates were infested”, “it.” for “L2 larvae (10 to 15 per well).”, “8” for “5”
The following compounds gave an effect of at least 80% in at least one of the two categories (mortality or growth inhibition) at an application rate of 200 ppm: A2

COC(=O)N(C(=O)c1ccc(C2=NO[C@@](c3cc(Cl)c(F)c(Cl)c3)(C(F)(F)F)C2)cc1C)C1CN(S(=O)(=O)C(F)F)C1 [A1, methyl N-[4-[(5S)-5-(3,5-dichloro-4-fluoro-phenyl)-5-(trifluoromethyl)-4H-isoxazol-3-yl]-2-methyl-benzoyl]-N-[1-(difluoromethylsulfonyl)azetidin-3-yl]carbamate]
≥ 80%: percent control (mortality, anti-feedant effect or growth inhibition) at 200 ppm (Spodoptera littoralis) | percent effect (mortality or growth inhibition) at 200 ppm (Plutella xylostella [1]) | percent effect (mortality or growth inhibition) at 200 ppm (Euschistus heros) | percent effect (mortality or growth inhibition) at 200 ppm (Diabrotica balteata) | mortality at 200 ppm (Thrips tabaci) | mortality at 200 ppm (Tetranychus urticae)

CCOC(=O)N(C(=O)c1ccc(C2=NO[C@@](c3cc(Cl)c(F)c(Cl)c3)(C(F)(F)F)C2)cc1C)C1CN(S(=O)(=O)C(F)F)C1 [A2, ethyl N-[4-[(5S)-5-(3,5-dichloro-4-fluoro-phenyl)-5-(trifluoromethyl)-4H-isoxazol-3-yl]-2-methyl-benzoyl]-N-[1-(difluoromethylsulfonyl)azetidin-3-yl]carbamate]
≥ 80%: percent effect (mortality or growth inhibition) at 200 ppm (Plutella xylostella [2]) | percent control (mortality, anti-feedant effect or growth inhibition) at 200 ppm (Spodoptera littoralis) | percent effect (mortality or growth inhibition) at 200 ppm (Euschistus heros)
